Assay results published in patent US20160297829A1, “METHOD FOR PRODUCING AVENACIOLIDES AND USES THEREOF” (Academia Sinica, priority 2015, published 2016).
pIC50: −log10 of the molar value. Values after ≈ are worked out from the molar mass of the structure shown. Values joined by “and” are separate entries in the source; they are usually repeats but may differ in a detail not shown here. Equal values may be shown once. Read-outs that look alike come from different tables or passages of the source.

Legend:
A. baumannii = assay: Transmission Electron Microscopy (TEM) of treated bacteria; assay type: cell-based, Acinetobacter baumannii
Experimental: (§1) FIG. 1 are TEM photographs of MRSA (a-f) and A. baumannii (g-l) after being treated with the compounds of example 2 (128 μM) and fosfomycin (64 μM), in which (a) and (g) are un-treated S. aureus and A. baumannii; (b) and […] are those treated with the compound 10d, while (c) and (i) are treated with the compound of 13d; (d) and (j) are treated with the compound 14; (e) and (k) are treated with the compound 15; (f) and […] are treated with fosfomycin, in which CW, CM, IM, and OM respectively denote cell walls, cell membranes, inner membranes, and outer membranes; and
(§2) Transmission Electron Microscopy (TEM)
(§3) Exponential phase bacteria were treated with compounds at 4×MIC for 1 hr at 37° C. Then, the cells were washed and fixed and cut into thin slices and photographed using a Thin-layer TEM.

MRSA = assay: as above; assay type: cell-based, methicillin-resistant Staphylococcus aureus (MRSA)
Experimental: as §1, §2, §3

[1] = system: gram-positive bacteria, including MRSA; assay: Growth inhibition (MIC), summary over strains; assay type: cell-based; details: for anti-bacteria activity: statement in words; for MIC: Staphylococcus aureus, MRSA, text summary for compounds 10d and 13d over gram-positive strains
Source text: (§4) Minimum Inhibition Concentration (MIC) Assay
(§5) MIC assay is a standardized assay performed in accordance with the guidelines issued by Clinical and Laboratory Standard Institute (CLSI) that measures the ability of certain agent and/or a surface in inhibiting the growth of a microorganism or killing the microorganism after being in contact with that microorganism for 24 hrs. Accordingly, MIC is the lowest concentration of an anti-bacterial agent and/or a surface that will inhibit the visible growth of a microorganism after overnight culture.
(§6) In practice, microorganisms grown on the agar plates were re-suspended in phosphate-buffered saline (PBS) to an OD 600 of 0.1. Suitable amount of this suspension was added to the appropriate broth media at a final concentration of 5×10^5 colony-forming units (CFU)/mL. Then, 98 μL of the broth+cell solution for each strain was added to each well of 96-well assay plate. Solutions of the present compounds were freshly prepared in DMSO and then serial diluted in 2-fold steps in DMSO, resulting in a final concentrations of 0.004-256 μg/mL when diluted 1:50 in test broth. The initial inoculum for each strain was serially diluted in PBS and plated on appropriate agar plate media to ensure that the assay contained the desired number of CFU. MIC assay plates were incubated overnight at 37° C. under aerobic conditions.
In this example, the inhibitory effect of the isolated avenaciolide derivatives of example 2 (i.e., compounds 10d, 13d, 14, and 15) on the growth of gram-positive bacteria, including MRSA, were tested; and the results are summarized in Table 1.

[2] = system: Mice macrophage cell line RAW 264.2; assay: AlamaBlue cell viability assay; assay type: cell-based; details: 24 hrs
Experimental: Mice macrophage cell line RAW 264.2 was used in the present disclosure. RAW 264.2 cells were cultured in RPMI 1640 medium supplemented with 10% fetal calf serum (FCS) and maintained in an environment of 5% CO2/95% air at 37° C.
AlamaBlue Cell Viability Assay
The alamarBlue cell viability assay uses a non-toxic, water-soluble resazurin dye that yields a fluorescent signal and a colorimetric change when incubated with metabolically active cells. The assay is based on the findings that metabolically active cells (or viable cells) may keep the culture medium in a reduced state, whereas the non-viable cells will turn the culture medium into an oxidized state, thereby rendering the redox indicator in the medium (i.e., resazurin dye) to convert from its non-fluorescent oxidized form (blue color) to its fluorescent reduced form (pink color). Thus, the cell viability may be monitored by the fluorescent signal changes at 590 nm.
Cells were plated in 96-well plates at a density of 5,000 cells/100 μL/well for 24 hrs, then 10 μL AlamarBlue™ reagent (AbD Serotee Ltd., Oxford, UK) and various concentrations (i.e., 12.5, 25, 50 or 100 μM) of the test compound (e.g., the compound of example 2) were added, and incubated for 24 hrs. The plates were then placed at a fluorescence reader and fluorescent signals at 590 nm were measured.
In general, mice macrophages were treated with various concentrations of the compounds of example 2 for 24 hrs, the viability of cells were then analyzed by fluorescence analysis in accordance with procedures described in “Materials and Methods” section.

E. coli ATCC 25922 = assay: Minimum Inhibition Concentration (MIC) assay; assay type: cell-based, Escherichia Coli
Source text: (§7) Various strains of microorganisms were used in the present disclosure, including Acinetobacter baumannii (ATCO 17978), Staphylococcus aureus (ATCO 29213), methicillin-resistant Staphylococcus aureus (MRSA) (ATCO 33592), Bacillus subtilis (ATCO 23857), and Escherichia Coli (ATCO 25922), which were purchased from American Type Culture Collection (ATCO), and cultured in Mueller-Hinton (MH) II agar plates or in MH broth.
as §4, §5, §6

MRSA MurA^C119D = biological target: T1, MRSA MurA^C119D (Staphylococcus aureus, UniProt Q5HEA0, C119D); assay: MuraA assay (malachite green); assay type: biochemical, methicillin-resistant Staphylococcus aureus (MRSA); details: for IC50, MurA activity: MRSA MurA C119D mutant (fosfomycin resistant), 5 replicates
T1 sequence (Q5HEA0 1-421 C119D): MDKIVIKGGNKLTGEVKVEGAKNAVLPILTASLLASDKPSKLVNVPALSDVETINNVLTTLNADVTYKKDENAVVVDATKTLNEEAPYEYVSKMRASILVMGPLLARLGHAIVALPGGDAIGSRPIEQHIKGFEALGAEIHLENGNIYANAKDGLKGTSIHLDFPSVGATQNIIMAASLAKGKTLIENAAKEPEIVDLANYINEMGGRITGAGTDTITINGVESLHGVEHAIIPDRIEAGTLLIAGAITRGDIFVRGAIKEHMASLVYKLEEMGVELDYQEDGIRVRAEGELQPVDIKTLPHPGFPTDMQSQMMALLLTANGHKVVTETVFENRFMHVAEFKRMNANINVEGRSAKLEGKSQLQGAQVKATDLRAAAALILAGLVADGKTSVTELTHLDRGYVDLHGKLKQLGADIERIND
Experimental: (§8) In a standardized assay, MuraA enzymes were pre-incubated with the substrate UNAG and an inhibitor for 10 min at 37° C. To determine the influence of UNAG on the binding process, experiments were performed in the absence of UNAG during pre-incubation period. The reaction was initiated by the addition of the second substrate PEP, resulting in a total volume of […] with the following concentrations: E. Coli MurA or MRSA MurA 25 nM, UNAG 310 μM, PEP 620 μM, 50 mM HEPES, pH 7.6, DMSO 1% (v/v). The reaction was stopped after 60 min at 37° C. by adding 100 μL of Lanzetta reagent containing malachite green solution (0.045% (w/v)) and ammonium heptamolybdate (8.4% (v/v)) at a ratio of 3:1 and with 0.03% (w/v) Tergitol NP-40 as dye-stabilizing detergent. After 10 min, the absorbance at 620 nm was measured using a FlexStation 3 Microplate Reader (Molecular Devices). Finally, dose-response curves were generated by measuring the enzyme activity of five replicates at least 8 different compound concentrations. The resulting data were plotted and IC50 values indicating the concentration of the compound with a residual activity of 50% were determined.
(§9) Various types of MuraA enzymes, including those from E. Coli, wild type MRSA^WT, and MRSA^C119D mutant strain, were treated with any of the compounds 10d, 13d, or 14, as well as fosfomycin, in which MRSA^WT represents wild type MurA, and MRSA^C119D mutant strain represents MRSA strain in which the 119th amino acid residue, cysteine (C), is replaced by aspartic acid (D).

MRSA MurA^WT = MRSA MurA^WT (Staphylococcus aureus, UniProt Q5HEA0); assay: MuraA assay (malachite green); assay type: biochemical, methicillin-resistant Staphylococcus aureus (MRSA); details: IC50, MurA activity, MRSA MurA wild type 25 nM, UNAG 310 μM, PEP 620 μM, pH 7.6; 5 replicates
Experimental: as §8, §9

[3] = system: S. aureus ATCC 33592 (MRSA strain); assay: Minimum Inhibition Concentration (MIC) assay; assay type: cell-based, methicillin-resistant Staphylococcus aureus (MRSA); details: Staphylococcus aureus, overnight at 37° C.
Source text: as §7, §4, §5, §6

E coli MurA = E coli MurA (Escherichia coli, UniProt P0A749); assay: biochemical; details: IC50, MurA activity, E coli MurA 25 nM, UNAG 310 μM, PEP 620 μM, pH 7.6; 5 replicates
Experimental: as §8, §9

B. subtilis ATCC 23857 = assay: Minimum Inhibition Concentration (MIC) assay; assay type: cell-based; details: Bacillus subtilis, ATCC23857
Source text: as §7, §4, §5, §6

S. aureus ATCC 29213 = assay: Minimum Inhibition Concentration (MIC) assay; assay type: cell-based; details: Staphylococcus aureus, ATCC29213, overnight at 37° C.
Source text: as §7, §4, §5, §6

A. baumannii 17978 = assay: Minimum Inhibition Concentration (MIC) assay; assay type: cell-based, Acinetobacter baumannii
Source text: as §7, §4, §5, §6

[4] = 128 μg/mL (FIG. 1 legend: 128 μM), treated for an hr
[5] = Escherichia coli, ATCC25922, overnight at 37° C., read-out: MIC
[6] = B. subtilis ATCC 23857, overnight at 37° C., read-out: MIC
[7] = 12.5 or 25 μM, fluorescence 590 nm
[8] = 50 or 100 μM, fluorescence 590 nm
[9] = 17978, Acinetobacter baumannii, read-out: MIC for gram-negative bacteria
[10] = Acinetobacter baumannii, A. baumannii 17978, overnight at 37° C., read-out: MIC
[11] = fosfomycin 64 μg/mL, positive control

Sequence of E coli MurA (P0A749 whole entry): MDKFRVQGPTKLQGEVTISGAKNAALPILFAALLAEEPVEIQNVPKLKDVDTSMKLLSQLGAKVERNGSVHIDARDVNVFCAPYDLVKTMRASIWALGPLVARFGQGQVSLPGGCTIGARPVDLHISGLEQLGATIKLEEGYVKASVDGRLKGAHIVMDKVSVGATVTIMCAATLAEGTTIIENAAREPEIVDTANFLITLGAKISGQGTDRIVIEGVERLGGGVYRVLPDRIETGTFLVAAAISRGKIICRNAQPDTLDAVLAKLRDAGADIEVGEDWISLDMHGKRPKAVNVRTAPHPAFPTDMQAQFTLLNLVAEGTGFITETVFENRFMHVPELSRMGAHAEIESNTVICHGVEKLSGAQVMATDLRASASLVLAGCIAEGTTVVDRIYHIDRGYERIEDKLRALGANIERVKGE

| Compound | cell wall structure in TEM photographs (A. baumannii; [4]) | cell wall structure in TEM photographs (MRSA; [4]) | anti-bacteria activity [1] | MIC (E. coli ATCC 25922; [5]) [µg/mL] | pIC50 (MRSA MurA^C119D) | pIC50 (MRSA MurA^WT) | MIC [3] [µg/mL] | pIC50 (E coli MurA) | MIC [1] [µg/mL] | MIC (B. subtilis ATCC 23857; [6]) [µg/mL] | MIC (S. aureus ATCC 29213) [µg/mL] | growth (viability) of macrophages [2, 7] | growth (viability) of macrophages [2, 8] | MIC (A. baumannii 17978; [9]) [µg/mL] | MIC (A. baumannii 17978; [10]) [µg/mL] | IC50, MurA activity (MRSA MurA^C119D) | other results |
| --- | --- | --- | --- | --- | --- | --- | --- | --- | --- | --- | --- | --- | --- | --- | --- | --- | --- |
| CCCCCCCC[C@H]1OC(=O)[C@@H]2OC(=O)[C@@H](C)[C@H]12 [Compound 15] | neither MRSA nor A. baumannii was affected | neither MRSA nor A. baumannii was affected | neither compound 14, nor compound 15 possessed any anti-bacteria activity |  |  |  |  |  |  |  |  |  |  |  |  |  | growth (viability) of macrophages ([2]; various concentrations (12.5, 25, 50 or 100 μM)): completely un-affected |
| C=C1C(=O)O[C@H]2C(=O)O[C@H](CCCCCCCC)[C@@H]12 [Compound 10d] | not affected | ruptured |  | 128 (≈ 481 µM) | 4.67 | 5.08 | 32 (≈ 120 µM) | 4.97 to 6.05 and 6.05 | 16 to 32 (≈ 60.1 to 120 µM) | 64 (≈ 240 µM) | 16 (≈ 60.1 µM) | slightly affected | significant growth inhibition | 256 (≈ 961 µM) | 256 (≈ 961 µM) |  |  |
| C=C(C(=O)O)[C@@H]1[C@@H](CCCCCCCC)OC(=O)[C@@H]1O [Compound 14] | completely unaffected | slightly affected | neither compound 14, nor compound 15 possessed any anti-bacteria activity |  |  | ~4.15 and 4.15 | 256 (≈ 900 µM) | 4.97 to 6.05 and 4.97 |  | 256 (≈ 900 µM) | 256 (≈ 900 µM) | slightly affected | significant growth inhibition |  |  | in-effective and No | MIC (E. coli ATCC 25922; overnight at 37° C.): no; MIC (A. baumannii 17978; A. baumannii 17978, overnight at 37° C.): no |
| C=C(C(=O)OC)[C@@H]1[C@@H](CCCCCCCC)OC(=O)[C@@H]1O [Compound 13d] | not affected | ruptured |  | 128 (≈ 429 µM) | 5.10 | 5.17 | 16 (≈ 53.6 µM) | 4.97 to 6.05 and 5.55 | 16 to 32 (≈ 53.6 to 107 µM) | 32 (≈ 107 µM) | 32 (≈ 107 µM) | slightly affected | significant growth inhibition | 256 (≈ 858 µM) | 256 (≈ 858 µM) |  |  |
| C[C@@H]1O[C@@H]1P(=O)(O)O [fosfomycin, reference compound] |  |  |  | 64 (≈ 464 µM) |  | 5.80 | 64 (≈ 464 µM) | 6.40 |  |  | 4 (≈ 29 µM) |  |  |  |  | failed to suppress and No | cell wall structure in TEM photographs (A. baumannii; [11]): ruptured; cell wall structure in TEM photographs (MRSA; [11]): ruptured; MIC (B. subtilis ATCC 23857): 128 µg/mL (≈ 927 µM); MIC (A. baumannii 17978; Acinetobacter baumannii, 17978): 256 µg/mL (≈ 1850 µM) |
